US20260375165A1, “ENGINEERED HUMAN SERINE DEHYDRATASE ENZYMES AND METHODS FOR TREATING CANCER” (BOARD OF REGENTS, THE UNIVERSITY OF TEXAS SYSTEM, priority 2022, published 2026)
Changes are numbered by the printed parent chain.

Columns and labels:
Assay type in all cases: biochemical
[1] = biological target: T1, human serine dehydratase (hSDH, EC 4.3.1.17), wild type, SEQ ID NO: 1 (Homo sapiens, UniProt P20132); assay: MBTH assay, kcat/Km of purified wild-type hSDH; details: role: substrate
T1 construct: hexahistidine (N); made in house; host or cells: E. coli BL21 (DE3), pET28a
T1 sequence (P20132 1-328): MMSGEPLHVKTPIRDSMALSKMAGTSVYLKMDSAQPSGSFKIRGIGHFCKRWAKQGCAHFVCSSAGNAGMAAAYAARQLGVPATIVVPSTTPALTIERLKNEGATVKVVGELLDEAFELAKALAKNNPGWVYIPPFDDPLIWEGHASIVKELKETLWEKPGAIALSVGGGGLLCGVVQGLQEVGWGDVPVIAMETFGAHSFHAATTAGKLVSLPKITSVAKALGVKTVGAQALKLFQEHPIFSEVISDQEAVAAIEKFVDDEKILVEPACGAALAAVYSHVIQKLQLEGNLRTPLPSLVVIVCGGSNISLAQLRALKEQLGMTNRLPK
Description: (§1) Human SDH variants were expressed and purified for subsequent biophysical characterization. In brief, hSDH variants in the pET28a plasmid was transformed into BL21 (DE3) for expression. The cells were grown overnight at 37 °C in 5 mL of TB media with 50 μg/mL of kanamycin. The subsequent morning, cultures were inoculated, at a 1:1000 dilution, into 0.5 L of fresh TB media containing 50 μg/mL of kanamycin. Upon reaching an A600 of 0.6 to 0.8, the culture was moved to 25 °C and isopropyl β-D-1-thiogalactopyranoside (IPTG) was added to a final concentration of 1 mM to induce T7 RNA polymerase expression, and subsequently hSDH variant protein expression. After overnight incubation, cells were harvested via centrifugation at 5,500 rpm for 20 minutes. The cell pellet, after removing the supernatant, was resuspended using 25 mL of pET lysis buffer (10 mM NaH2PO4, 30 mM imidazole, 300 mM NaCl, pH 8.0). The cell suspension was then lysed by sonication and cleared by centrifugation at 14,000 rpm for 40 minutes. The supernatant from this centrifugation step was then filtered using a 0.22 μm membrane. The clarified supernatant was then applied to 1 mL of nickel-nitrotriacetic acid (Ni-NTA) resin that had been pre-equilibrated with 20 mL of pET lysis buffer. The resin was washed with 20 mL (20 column volumes) of pET lysis buffer. Afterward, the resin was incubated with 3 mL of pET elution buffer (10 mM NaH2POd4, 250 mM imidazole, 300 mM NaCl, pH 8.0), equilibrated for 5 minutes, and then eluted. The elution step was then repeated with 2 ml of extra elution buffer to increase recovery. […] Purity of the proteins were analyzed via sodium dodecyl sulfate-polyacrylamide gel electrophoresis (SDS-PAGE) on a 4% to 20% pre-cast Tris-Glycine gel run under reducing conditions (2.5% β-Mercaptoethanol (BME). Protein concentration was determined via A280 under denaturing conditions using a calculated extinction coefficient (8280=33960 M^−1 cm^−1) from Geneious software (v. 8.0.5). […]

[2] = biological target: T2, human serine dehydratase (hSDH) Variant 4 (I13T, S26N, R51H, I96T, D114E, G129D, K221R, A222S, W157R, D261L, L112S), SEQ ID NO: 5 (Homo sapiens, UniProt P20132, A222S/D114E/D261L/G129D/I13T/I96T/K221R/L112S/R51H/S26N/W157R); assay: MBTH assay, kcat/Km of purified hSDH Variant 4; details: role: substrate; threonine 1-100 mM, 1-2 μM enzyme, 37 °C, 20 seconds
T2 sequence (P20132 1-328 I13T/S26N/R51H/I96T/L112S/D114E/G129D/W157R/K221R/A222S/D261L): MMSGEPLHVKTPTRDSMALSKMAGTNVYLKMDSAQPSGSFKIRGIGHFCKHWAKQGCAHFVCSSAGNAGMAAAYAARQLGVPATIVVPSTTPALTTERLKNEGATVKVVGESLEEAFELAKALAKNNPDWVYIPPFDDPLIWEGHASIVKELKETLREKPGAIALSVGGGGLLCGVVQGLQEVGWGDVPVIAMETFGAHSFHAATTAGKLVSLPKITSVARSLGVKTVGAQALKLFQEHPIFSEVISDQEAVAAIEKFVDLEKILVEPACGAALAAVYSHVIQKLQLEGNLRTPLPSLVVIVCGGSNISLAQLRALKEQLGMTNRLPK
Description: as §1, with “minutes.” for “minutes. The supernatant from this centrifugation step was then filtered using a 0.22 μm membrane. The clarified supernatant was then applied to 1 mL of nickel-nitrotriacetic acid (Ni-NTA) resin that had been pre-equilibrated with 20 mL of pET lysis buffer. The resin was washed with 20 mL (20 column volumes) of pET lysis buffer. Afterward, the resin was incubated with 3 mL of pET elution buffer (10 mM NaH2POd4, 250 mM imidazole, 300 mM NaCl, pH 8.0), equilibrated for 5 minutes, and then eluted. The elution step was then repeated with 2 ml of extra elution buffer to increase recovery.”

[3] = biological target: T3, human serine dehydratase (hSDH) Variant 5 (I13T, S26N, R51H, I96T, D114E, G129D, K221R, A222G, W157R, D261L, L112S), SEQ ID NO: 6 (Homo sapiens, UniProt P20132, A222G/D114E/D261L/G129D/I13T/I96T/K221R/L112S/R51H/S26N/W157R); assay: MBTH assay, kcat/Km of purified hSDH Variant 5; details: role: substrate; threonine 1-100 mM, 1-2 μM enzyme, 37 °C, 20 seconds
T3 sequence (P20132 1-328 I13T/S26N/R51H/I96T/L112S/D114E/G129D/W157R/K221R/A222G/D261L): T2 sequence (P20132 1-328 I13T/S26N/R51H/I96T/L112S/D114E/G129D/W157R/K221R/A222S/D261L) with S222G
Description: as §1, with “minutes.” for “minutes. The supernatant from this centrifugation step was then filtered using a 0.22 μm membrane. The clarified supernatant was then applied to 1 mL of nickel-nitrotriacetic acid (Ni-NTA) resin that had been pre-equilibrated with 20 mL of pET lysis buffer. The resin was washed with 20 mL (20 column volumes) of pET lysis buffer. Afterward, the resin was incubated with 3 mL of pET elution buffer (10 mM NaH2POd4, 250 mM imidazole, 300 mM NaCl, pH 8.0), equilibrated for 5 minutes, and then eluted. The elution step was then repeated with 2 ml of extra elution buffer to increase recovery.”

[4] = biological target: T4, human serine dehydratase (hSDH) Variant 1 (K221F, A222S), SEQ ID NO: 2 (Homo sapiens, UniProt P20132, A222S/K221F); assay: MBTH assay, kcat/Km of purified hSDH Variant 1; details: role: substrate; threonine 1-100 mM, 1-2 μM enzyme, 37 °C, 20 seconds
T4 construct: hexahistidine (N); made in house; host or cells: E. coli BL21 (DE3), pET28a
T4 sequence (P20132 1-328 K221F/A222S): T1 sequence (P20132 1-328) with K221F, A222S
Description: as §1, with “minutes.” for “minutes. The supernatant from this centrifugation step was then filtered using a 0.22 μm membrane. The clarified supernatant was then applied to 1 mL of nickel-nitrotriacetic acid (Ni-NTA) resin that had been pre-equilibrated with 20 mL of pET lysis buffer. The resin was washed with 20 mL (20 column volumes) of pET lysis buffer. Afterward, the resin was incubated with 3 mL of pET elution buffer (10 mM NaH2POd4, 250 mM imidazole, 300 mM NaCl, pH 8.0), equilibrated for 5 minutes, and then eluted. The elution step was then repeated with 2 ml of extra elution buffer to increase recovery.”

[5] = biological target: T5, human serine dehydratase (hSDH) Variant 3 (S26N, R51H, S63P, M70I, L94P, G129D, A204S, K221R, A222S, L112S), SEQ ID NO: 4 (Homo sapiens, UniProt P20132, A204S/A222S/G129D/K221R/L112S/L94P/M70I/R51H/S26N/S63P); assay: MBTH assay, kcat/Km of purified hSDH Variant 3; details: role: substrate; threonine 1-100 mM, 1-2 μM enzyme, 37 °C, 20 seconds
T5 sequence (P20132 1-328 S26N/R51H/S63P/M70I/L94P/L112S/G129D/A204S/K221R/A222S): T2 sequence (P20132 1-328 I13T/S26N/R51H/I96T/L112S/D114E/G129D/W157R/K221R/A222S/D261L) with T13I, S63P, M70I, L94P, T96I, E114D, R157W, A204S, L261D
Description: as §1, with “minutes.” for “minutes. The supernatant from this centrifugation step was then filtered using a 0.22 μm membrane. The clarified supernatant was then applied to 1 mL of nickel-nitrotriacetic acid (Ni-NTA) resin that had been pre-equilibrated with 20 mL of pET lysis buffer. The resin was washed with 20 mL (20 column volumes) of pET lysis buffer. Afterward, the resin was incubated with 3 mL of pET elution buffer (10 mM NaH2POd4, 250 mM imidazole, 300 mM NaCl, pH 8.0), equilibrated for 5 minutes, and then eluted. The elution step was then repeated with 2 ml of extra elution buffer to increase recovery.”

[6] = biological target: T6, human serine dehydratase (hSDH) Variant 2 (S26N, R51H, S63P, M70I, L94P, G129D, A204S, K221R, A222S), SEQ ID NO: 3 (Homo sapiens, UniProt P20132, A204S/A222S/G129D/K221R/L94P/M70I/R51H/S26N/S63P); assay: MBTH assay, kcat/Km of purified hSDH Variant 2; details: role: substrate; threonine 1-100 mM, 1-2 μM enzyme, 37 °C, 20 seconds
T6 sequence (P20132 1-328 S26N/R51H/S63P/M70I/L94P/G129D/A204S/K221R/A222S): T1 sequence (P20132 1-328) with S26N, R51H, S63P, M70I, L94P, G129D, A204S, K221R, A222S
Description: as §1, with “minutes.” for “minutes. The supernatant from this centrifugation step was then filtered using a 0.22 μm membrane. The clarified supernatant was then applied to 1 mL of nickel-nitrotriacetic acid (Ni-NTA) resin that had been pre-equilibrated with 20 mL of pET lysis buffer. The resin was washed with 20 mL (20 column volumes) of pET lysis buffer. Afterward, the resin was incubated with 3 mL of pET elution buffer (10 mM NaH2POd4, 250 mM imidazole, 300 mM NaCl, pH 8.0), equilibrated for 5 minutes, and then eluted. The elution step was then repeated with 2 ml of extra elution buffer to increase recovery.”

| Structure (SMILES) | kcat/KM (L-serine to pyruvate) ([1]; irreversible deamination of L-serine to pyruvate) | Kcat /Km (Threonine) [2] [M⁻¹ s⁻¹] | Kcat /Km (Threonine) [3] [M⁻¹ s⁻¹] | Kcat /Km (Threonine) [4] [M⁻¹ s⁻¹] | kcat/KM (L-threonine to α-ketobutyrate) ([1]; irreversible deamination of L-threonine to α-ketobutyrate) | Kcat /Km (Threonine) ([1]; threonine 1-100 mM, 1-2 μM enzyme, 37 °C, 20 seconds) [M⁻¹ s⁻¹] | Kcat /Km (Threonine) [5] [M⁻¹ s⁻¹] | Kcat /Km (Threonine) [6] [M⁻¹ s⁻¹] |
| --- | --- | --- | --- | --- | --- | --- | --- | --- |
| N[C@@H](CO)C(=O)O [Serine, L-serine] | ~ 0.6 s^−1 mM^−1 |  |  |  |  |  |  |  |
| C[C@@H](O)[C@H](N)C(=O)O [Threonine, L-threonine] |  | 6800 ± 700 | 1700 ± 100 | 3800 ± 300 | ~ 1.1 s^−1 mM^−1 | 1100 ± 50 | 2800 ± 200 | 2000 ± 50 |
